# Laboratory results taken from US12590100B2, “Tetrahydro-spiroindoline-pyrrolopyrrole-triones inhibitors of the NRF2-β-TrCP interaction for use in the treatment of fatty liver disease” (Universidad Autonoma De Madrid, priority 2021, dated 2026).
# Experiments:
# SCF-βTrCP / NRF2 = SCF-βTrCP / NRF2 (Homo sapiens, UniProt Q9Y297); assay: In vitro ubiquitination of phosphorylated NRF2 by the βTrCP complex; assay type: biochemical; conditions: for ubiquitination (polyubiquitination) of NRF2 by βTrCP: PHAR 3 μM, 1 hour at 25° C., western blot
# Sequence of SCF-βTrCP / NRF2 (Q9Y297 whole entry, the tested form may be a part): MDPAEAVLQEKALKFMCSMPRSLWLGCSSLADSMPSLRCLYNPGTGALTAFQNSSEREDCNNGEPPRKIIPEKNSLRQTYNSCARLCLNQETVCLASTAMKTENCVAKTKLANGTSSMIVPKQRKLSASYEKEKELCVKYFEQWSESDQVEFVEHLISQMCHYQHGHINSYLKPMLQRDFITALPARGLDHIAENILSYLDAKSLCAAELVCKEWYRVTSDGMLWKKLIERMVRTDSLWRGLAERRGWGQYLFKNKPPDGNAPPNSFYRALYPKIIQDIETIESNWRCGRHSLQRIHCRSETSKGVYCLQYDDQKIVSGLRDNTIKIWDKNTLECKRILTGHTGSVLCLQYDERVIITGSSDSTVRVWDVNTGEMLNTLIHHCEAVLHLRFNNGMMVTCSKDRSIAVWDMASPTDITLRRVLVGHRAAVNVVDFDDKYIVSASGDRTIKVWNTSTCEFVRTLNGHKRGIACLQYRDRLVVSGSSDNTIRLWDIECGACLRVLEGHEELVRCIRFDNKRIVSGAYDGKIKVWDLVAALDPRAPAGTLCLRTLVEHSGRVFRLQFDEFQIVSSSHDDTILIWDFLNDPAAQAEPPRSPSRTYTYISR
# Sequence of SCF-βTrCP / NRF2 (P63208 whole entry partner, the tested form may be a part): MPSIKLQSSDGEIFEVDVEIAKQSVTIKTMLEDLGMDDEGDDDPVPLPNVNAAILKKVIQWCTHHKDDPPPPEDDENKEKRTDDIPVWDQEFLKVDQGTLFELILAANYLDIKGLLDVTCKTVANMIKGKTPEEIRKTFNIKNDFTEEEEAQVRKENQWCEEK
# Sequence of SCF-βTrCP / NRF2 (Q13616 whole entry partner, the tested form may be a part): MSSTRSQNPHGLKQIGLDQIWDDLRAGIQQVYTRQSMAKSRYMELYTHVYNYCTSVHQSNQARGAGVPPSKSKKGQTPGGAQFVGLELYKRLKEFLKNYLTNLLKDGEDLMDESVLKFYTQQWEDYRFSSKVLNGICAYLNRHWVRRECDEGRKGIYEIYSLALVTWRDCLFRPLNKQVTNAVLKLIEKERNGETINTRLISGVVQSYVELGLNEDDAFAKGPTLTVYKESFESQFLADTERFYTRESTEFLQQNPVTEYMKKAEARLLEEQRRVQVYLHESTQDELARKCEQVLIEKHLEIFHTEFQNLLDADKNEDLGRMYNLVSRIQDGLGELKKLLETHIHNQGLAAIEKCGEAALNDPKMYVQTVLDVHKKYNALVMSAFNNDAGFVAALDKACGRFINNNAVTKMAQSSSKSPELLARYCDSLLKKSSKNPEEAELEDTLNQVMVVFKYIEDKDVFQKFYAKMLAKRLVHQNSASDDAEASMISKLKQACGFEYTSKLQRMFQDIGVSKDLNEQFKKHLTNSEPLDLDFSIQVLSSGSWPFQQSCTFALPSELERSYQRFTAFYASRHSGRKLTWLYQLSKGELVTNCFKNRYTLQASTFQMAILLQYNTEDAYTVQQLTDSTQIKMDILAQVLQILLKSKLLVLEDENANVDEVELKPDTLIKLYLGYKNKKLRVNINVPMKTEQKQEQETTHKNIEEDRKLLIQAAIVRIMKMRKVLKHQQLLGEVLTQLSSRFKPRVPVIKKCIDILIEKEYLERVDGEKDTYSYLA
# Sequence of SCF-βTrCP / NRF2 (P62877 whole entry partner, the tested form may be a part): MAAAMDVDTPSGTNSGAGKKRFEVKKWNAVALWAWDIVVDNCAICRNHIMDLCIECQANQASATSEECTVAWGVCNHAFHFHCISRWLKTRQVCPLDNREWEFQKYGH
# Method: In vitro kinase assay and in vitro ubiquitination. For the recognition and degradation of NRF2 by βTrCP, the serines 335, 338, 342 and 347 located at the Neh6 domain of NRF2 need to be previously phosphorylated by the kinase GSK-3β (FIG. 1). Therefore, to obtain the phosphorylated substrate, 20 ng recombinant NRF2-DETGE was used together with 0.5 μg of recombinant GSK-3β incubated at 30° C. for 60 min. The result was analyzed by western blot. After confirming the existence of phosphorylation in the residues of interest, an in vitro ubiquitination assay was carried out using the recombinant proteins that make up the E3 ubiquitin ligase complex. The ubiquitination reaction was carried out using: ATP (2 mM), […], SCF-βTrCP (450 nM), and non-phosphorylated or phosphorylated NRF2 (20 ng), in a specific ubiquitination buffer (30 mM Tris pH 7.6, 5 mM MgCl2, 2 mM dithiothreitol, 100 mM NaCl). Before the ubiquitination reactions, the E1, Cdc34b, and ubiquitin components were incubated together for 2 min to allow the E2 thioester bond to form. The reactions were incubated for 1 hour at 25° C. in the presence or absence of PHAR (3 μM) in order to determine whether or not PHAR inhibits ubiquitination by βTrCP. […] The PI3K/AKT signaling pathway is inhibited, and therefore GSK-3β is activated with the PI3K inhibitor, LY294002. As a result, NRF2 is phosphorylated by GSK-3β and marked for degradation by means of interaction with β-TrCP. Therefore, if PHAR is capable of inhibiting βTrCP-NRF2 interaction, the NRF2 levels will remain stable independently of the activation and phosphorylation by GSK-3β. […]
# FIG. 6. […] Phosphorylation at residues 335, 338, 342 and 347 was analyzed by western blot. […] Polyubiquitinated NRF2 was detected by western blot with anti-ubiquitin antibody. […] E), densitometric analysis of NRF2 protein levels of the representative immunoblot of (D), expressed as a ratio of NRF2/GAPDH. […] G), densitometric analysis of NRF2 and HO1 protein levels of the representative immunoblots of (F), expressed as a ratio of NRF2 and HO1/GAPDH. […]
# Raw264.7 cells = assay: Inflammatory response in LPS-stimulated Raw264.7 cells; assay type: cell-based, mouse; conditions: Raw264.7, PHAR 10 μM 8 h pretreatment
# Method: FIG. 7. […] Serum-deprived Raw264.7 cells were pretreated with 10 μM of PHAR for 8 h. 0.1% DMSO was used as a vehicle. After that period of time, the cells were treated with 100 ng/ml of LPS for the indicated times. A), representative immunoblots of NRF2, HO1, p65, pre-IL1β, COX2, NOS2, and GAPDH as a loading control. The black arrow tip marks the specific band of p65 and NOS2. B), densitometric analysis of HO1 and NRF2 protein levels of the representative immunoblots of (A), expressed as a ratio of protein/GAPDH levels. The data is depicted as means±SEM (n=3). Statistical analysis was performed with two-way ANOVA followed by the Bonferroni test to compare inter-group differences. ***p<0.001 vs LPS. C), Densitometric analysis of pre-IL1β, COX2, and NOS2 protein levels of the representative immunoblots of (A), expressed as a ratio of protein/GAPDH levels. The data is depicted as means±SEM (n=3). Statistical analysis was performed with two-way ANOVA followed by the Bonferroni test to compare inter-group differences. ***p<0.001 vs. LPS. D) and E), the mRNA levels of Il1β, Cox2, Nos2, Il6, and Tnfα were determined by means of qRT-PCR and normalized by means of average Gapdh, Tbp, and β-actin. The data is depicted as mean±SEM (n=3). Statistical analysis was performed with two-way ANOVA followed by the Bonferroni test to check inter-group differences. ***p<0.001 vs. LPS. […] The cells were then stimulated with LPS (100 ng/ml, 1, 2, or 4 h) to trigger an inflammatory response.
compound,measurement,setting,value
O=C1[C@@H]2[C@H](Cc3c[nH]c4ccccc34)N[C@]3(C(=O)Nc4ccc(Cl)cc43)[C@@H]2C(=O)N1c1ccc2c(c1)OCCO2 [PHAR],ubiquitination (polyubiquitination) of NRF2 by βTrCP,SCF-βTrCP / NRF2,prevents the ubiquitination of NRF2
same,ubiquitination (polyubiquitination) of NRF2 by βTrCP,SCF-βTrCP / NRF2; listed as PH,polyubiquitination was considerably lower
same,concentration from which substrate polyubiquitination starts to be reduced,SCF-βTrCP / NRF2; dose curve 3-3000 nM,100 nM
same,Il6 and Tnfa induction,Raw264.7 cells; LPS 100 ng/ml,significantly milder induction
same,NRF2 and HO-1 levels,Raw264.7 cells; LPS 100 ng/ml,increased NRF2 and HO-1 levels
same,"inflammatory parameters by immunoblot (pre-IL1β, COX2, NOS2) or mRNA (Il1β, Cox2, Nos2)",Raw264.7 cells; LPS 100 ng/ml 4 h,mitigated the increase in inflammatory parameters
